IC50 and solubility data for 15 compounds are collected here from patent publication EP4752152A1, “STEROID COMPOUND, AND PREPARATION METHOD THEREFOR AND USE THEREOF” (Cholesgen (Shanghai) Co.Ltd., priority 2023, dated 2025).

The test system of one data set is SREBP pathway. The data set can be described thus: SREBP luciferase reporter gene system (SRE-luciferase assay). Type of data set: cell-based, human. As to conditions: Huh-7/SRE-luc cells, sterol-deficient medium, 0.01-10 µM. A digest of the protocol: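 Huh-7 cells stably carrying LDLR promoter-luciferase plus GFP were treated 16 h in sterol-deficient medium (5% lipoprotein-deficient serum, 2 µM lovastatin, 10 µM mevalonic acid) at 0.01–10 µM. Luciferase/GFP ratio measured as pathway activity; inhibition versus DMSO fitted to a four-parameter model for IC50.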
(In general: Reporter assays use an easily measured gene product as a stand-in for the process of interest.)

Data set [1] in a line: Solubility in fasted-state simulated intestinal fluid (FaSSIF). Type of data set: physicochemical. As to conditions: FaSSIF pH 6.5, 300 µM sample solution, room temperature. The protocol: Compound powder was dissolved in DMSO to prepare a 10.0 mM stock solution for later use. 0.021 g NaOH, 0.198 g NaH2PO4, and 0.309 g NaCl were weighed and added to 50.0 mL of ultrapure water. After thorough mixing, the pH was adjusted to 6.5 using HCl or NaOH. Then, 0.112 g of FaSSIF powder was added. After complete dissolution, the solution was allowed to stand at room temperature for 2 hours for later use. A certain volume of the compound stock solution was added to a certain volume of FaSSIF to prepare a 300 µM sample solution, which was mixed at room temperature under 1000 rpm for 1 hour. After 1 hour, the sample was centrifuged, and a certain volume of supernatant was taken. The termination solution was added to precipitate the sample, which was then thoroughly mixed and centrifuged for 20 minutes. The supernatant was then taken again, diluted with dilution solution, and then analyzed by liquid chromatography-tandem mass spectrometry (LC-MS/MS). The concentration of the test compound in the samples was quantitatively determined using LC-MS/MS. Table 3: FaSSIF solubility results of compounds from some examples

Data set [2] deals with Fatty Acid Synthase (FASN) gene. The data set can be described thus: Inhibition of FASN gene expression (qPCR) in Huh-7 cells. Type of data set: cell-based, human. To be noted: Huh-7 cells, starvation medium, 16 hours, qPCR, class symbols, read-out: FASN IC50. A digest of the protocol:
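Huh-7 cells switched to starvation DMEM (5% LPDS, 2 µM lovastatin, 10 µM mevalonate) and treated 16 h with compound, top 3000 nM, 3-fold dilutions, 5 concentrations. FASN mRNA by RT-qPCR; inhibition relative to DMSO, IC50 from four-parameter fit.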
In general terms: Quantitative PCR measures a nucleic acid by following its amplification.

[3] abbreviates: FaSSIF, pH 6.5, fassif, kinetic from dmso stock.

Molecules are shown by their SMILES. pIC50: −log10 of the molar value. Converted amounts (≈) assume the structure as drawn. Where two headings read alike, the source gives them in different places.

For orientation: IC50 means the point on the concentration scale where inhibition reaches its midpoint. A word on the solubility: it is the dissolved amount per volume that the medium holds. High values mean much dissolved substance, low ones little dissolved substance. In general, pIC50 refers to the negative decadic logarithm of the IC50, by convention in mol/L. Turning to `COc1nc(F)ccc1C(O)CCC[C@@H](C)[C@H]1CC[C@H]2[C@H]3[C@H](CC[C@]12C)[C@@]1(C)CC[C@H](O)[C@H](O)[C@@H]1CC3(F)F` (single isomer, unassigned) [Compound 188, (1R,3aS,3bS,5aR,6R,7S,9aR,9bS,11aR)-4,4-difluoro-1-[(2R,6S)-6-(6-fluoro-2-methoxypyridin-3-yl)-6-hydroxyhexan-2-yl]-9a,11a-dimethylhexadecahydro-1H-cyclopenta[1,2-a]phenanthrene-6,7-diol or (1R,3aS,3bS,5aR,6R,7S,9aR,9bS,11aR)-4,4-difluoro-1-[(2R,6R)-6-(6-fluoro-2-methoxypyridin-3-yl)-6-hydroxyhexan-2-yl]-9a,11a-dimethylhexadecahydro-1H-cyclopenta[1,2-a]phenanthrene-6,7-diol], in the data set on SREBP pathway (16 hours), the IC50 came to 0.142 µM. Besides, the solubility at 1 h in data set [1] (setting [3]) was 139 µM (≈ 76.9 µg/mL). Further, the pIC50 in data set [2] (Homo sapiens, Huh-7, 16 h) was > 6.70.

Turning to `COc1nc(F)ccc1C(O)CCC[C@@H](C)[C@H]1CC[C@H]2[C@H]3[C@H](CC[C@]12C)[C@@]1(C)CC[C@H](O)[C@H](O)[C@@H]1CC3(F)F` (single isomer, unassigned) [Compound 189, (1R,3aS,3bS,5aR,6R,7S,9aR,9bS,11aR)-4,4-difluoro-1-[(2R,6R)-6-(6-fluoro-2-methoxypyridin-3-yl)-6-hydroxyhexan-2-yl]-9a,11a-dimethylhexadecahydro-1H-cyclopenta[1,2-a]phenanthrene-6,7-diol or (1R,3aS,3bS,5aR,6R,7S,9aR,9bS,11aR)-4,4-difluoro-1-[(2R,6S)-6-(6-fluoro-2-methoxypyridin-3-yl)-6-hydroxyhexan-2-yl]-9a,11a-dimethylhexadecahydro-1H-cyclopenta[1,2-a]phenanthrene-6,7-diol], the IC50 in the data set on SREBP pathway (16 hours) is 0.0231 µM. For the same compound, the solubility at 1 h in data set [1] (60 min) was 157.08 µM (≈ 87 µg/mL). The negative logarithm of the IC50 (pIC50) in data set [2] is > 6.70.

Turning to `COc1cc(F)nc(F)c1[C@@H](O)CCC[C@@H](C)[C@H]1CC[C@H]2[C@H]3[C@H](CC[C@]12C)[C@@]1(C)CC[C@H](O)[C@H](O)[C@@H]1CC3(F)F` (single isomer, unassigned) [Compound 234], in the data set on SREBP pathway (Homo sapiens, Huh-7, 16 h), the IC50 is 0.029 µM. In addition, in data set [1] (setting [3]), the solubility at 1 h was 49.3 µM (≈ 28.2 µg/mL). Moreover, in data set [2] (Homo sapiens, Huh-7, 16 h), the negative-log IC50 (pIC50) is > 6.70.

Regarding `C[C@H](CCCC(O)c1cccc2c1nnn2C)[C@H]1CC[C@H]2[C@H]3[C@H](CC[C@]12C)[C@@]1(C)CC[C@H](O)[C@H](O)[C@@H]1CC3(F)F` (stereo partly drawn) [Compound 272, (1R,3aS,3bS,5aR,6R,7 S,9aR,9bS,11aR)-4,4-Difluoro-1-[(2R)-6-hydroxy-6-(1-methylbenzo[d][1,2,3]triazol-4-yl)hexan-2-yl]-9a,11a-dimethylhexadecahyd ro-1H-cyclopenta[1,2-a]phenanthrene-6,7-diol], the 50% inhibitory concentration (IC50) in the data set on SREBP pathway (Homo sapiens, Huh-7, 16 h) is 0.116 µM. This compound returned a solubility at 1 h in data set [1] (setting [3]) of 225 µM (≈ 126 µg/mL). The pIC50 in data set [2] (Homo sapiens, Huh-7, 16 h) was > 6.70.

Take `COc1cc(F)nc(OC)c1[C@@H](O)CCC[C@@H](C)[C@H]1CC[C@H]2[C@H]3[C@H](CC[C@]12C)[C@@]1(C)CC[C@H](O)[C@H](O)[C@@H]1CC3(F)F` (single isomer, unassigned) [Compound 263]: in the data set on SREBP pathway (Homo sapiens, Huh-7, 16 h), the IC50 is 0.032 µM. This compound also came in with a solubility at 1 h in data set [1] (setting [3]) of 63 µM (≈ 36.8 µg/mL). The pIC50 in data set [2] (Homo sapiens, Huh-7, 16 h) is > 6.70.

For the compound `COc1nc(F)ccc1[C@@H](O)CC[C@@H](C)[C@H]1CC[C@H]2[C@H]3[C@H](CC[C@]12C)[C@@]1(C)CC[C@H](O)[C@H](O)[C@@H]1CC3(F)F` [Compound 337, (1R,3aS,3bS,5aR,6R,7S,9aR,9bS,11aR)-4,4-difluoro-1-[(2R,5S)-5-(6-fluoro-2-methoxypyridin-3-yl)-5-hydroxypentan-2-yl]-9a,11a-dimethylhexadecahydro-1H-cyclopenta[1,2-a]phenanthrene-6,7-diol], in the data set on SREBP pathway (Homo sapiens, Huh-7, 16 h), the IC50 turned out to be 0.155 µM. This compound registered a solubility at 1 h in data set [1] (setting [3]) of 246 µM (≈ 133 µg/mL). Further, in data set [2] (Homo sapiens, Huh-7, 16 h), the pIC50 was > 6.70.

Take `COc1cccc(F)c1C(O)CC[C@@H](C)[C@H]1CC[C@H]2[C@H]3[C@H](CC[C@]12C)[C@@]1(C)CC[C@H](O)[C@H](O)[C@@H]1CC3(F)F` (stereo partly drawn) [Compound 333, (1R,3aS,3bS,5aR,6R,7S,9aR,9bS,11aR)-4,4-difluoro-1-[(2R)-5-(2-fluoro-6-methoxyphenyl)-5-hydroxypentan-2-yl]-9a,11a-dimethylhexadecahydro-1H-cyclopenta[1,2-a]phenanthrene-6,7-diol]: in the data set with SREBP pathway (Homo sapiens, Huh-7, 16 h), the half-inhibitory concentration (IC50) worked out at 0.118 µM. In data set [1] (setting [3]), the concentration in solution (solubility at 1 h) came to 148 µM (≈ 79.7 µg/mL). In addition, the negative logarithm of the IC50 (pIC50) in data set [2] (Homo sapiens, Huh-7, 16 h) is 6.30 to 6.70.

As to `C[C@H](CCCC(O)c1ccc(F)nc1OC1CC1)[C@H]1CC[C@H]2[C@H]3[C@H](CC[C@]12C)[C@@]1(C)CC[C@H](O)[C@H](O)[C@@H]1CC3(F)F` (stereo partly drawn) [Compound 328, (1R,3aS,3bS,5aR,6R,7S,9aR,9bS,11aR)-1-[(2R)-6-[2-(cyclopropyloxy)-6-fluoropyridin-3-yl]-6-hydroxyhexan-2-yl]-4,4-difluoro-9a,11a-dimethylhexadecahydro-1H-cyclopenta[1,2-a]phenanthrene-6,7-diol], the IC50 with SREBP pathway (Homo sapiens, Huh-7, 16 h) was 0.043 µM. Moreover, the solubility at 1 h in data set [1] (setting [3]) is 263 µM (≈ 152 µg/mL).

Take `C[C@H](CCCC(O)c1cccc2ncn(C)c12)[C@H]1CC[C@H]2[C@H]3[C@H](CC[C@]12C)[C@@]1(C)CC[C@H](O)[C@H](O)[C@@H]1CC3(F)F` (single isomer, unassigned) [Compound 298, (1R,3aS,3bS,5aR,6R,7S,9aR,9bS,11aR)-4,4-difluoro-1-[(2R,6S)-6-hydroxy-6-(3-methylbenzo[d]imidazol-4-yl)hexan-2-yl]-9a,11a-dimethylhexadecahydro-1H-cyclopenta[1,2-a]phenanthrene-6,7-diol or (1R,3aS,3bS,5aR,6R,7S,9aR,9bS,11aR)-4,4-difluoro-1-[(2R,6R)-6-hydroxy-6-(3-methylbenzo[d]imidazol-4-yl)hexan-2-yl]-9a,11a-dimethylhexadecahydro-1H-cyclopenta[1,2-a]phenanthrene-6,7-diol]: the IC50 with SREBP pathway (16 hours) was determined as 0.093 µM. Further, in data set [1] (setting [3]), the solubility at 1 h is 18.2 µM (≈ 10.2 µg/mL).

For `C[C@H](CCCC(O)c1c(F)cc(F)nc1F)[C@H]1CC[C@H]2[C@H]3[C@H](CC[C@]12C)[C@@]1(C)CC[C@H](O)[C@H](O)[C@@H]1CC3(F)F` (stereo partly drawn) [Compound 165, (1R,3aS,3bS,5aR,6R,7S,9aR,9bS,11aR)-4,4-difluoro-1-[(2R)-6-hydroxy-6-(2,4,6-trifluoropyridin-3-yl)hexan-2-yl]-9a,11a-dimethylhexadecahydro-1H-cyclopenta[1,2-a]phenanthrene-6,7-diol], in the data set with SREBP pathway (Homo sapiens, Huh-7, 16 h), the IC50 was 0.099 µM. The compound further yielded a solubility at 1 h in data set [1] (setting [3]) of 87.4 µM (≈ 48.9 µg/mL).

With `C[C@H](CCCC(O)c1ccccc1F)[C@H]1CC[C@H]2[C@H]3[C@H](CC[C@]12C)[C@@]1(C)CC[C@H](O)[C@H](O)[C@@H]1CC3(F)F` (stereo partly drawn) [Compound 3, (1R,3aS,3bS,5aR,6R,7S,9aR,9bS,11aR)-4,4-difluoro-1-[(2R)-6-(2-fluorophenyl)-6-hydroxyhexan-2-yl]-9a,11a-dimethylhexadecahydro-1H-cyclopenta[1,2-a]phenanthrene-6,7-diol], the IC50 with SREBP pathway (Homo sapiens, Huh-7, 16 h) was 0.03 µM. The compound also displayed a solubility at 1 h in data set [1] (setting [3]) of 247 µM (≈ 129 µg/mL).

Consider `COc1cc(F)c([C@H](O)CCC[C@@H](C)[C@H]2CC[C@H]3[C@H]4[C@H](CC[C@]23C)[C@@]2(C)CC[C@H](O)[C@H](O)[C@@H]2CC4(F)F)c(F)n1` (single isomer, unassigned) [Compound 240], for which the 50% inhibitory concentration (IC50) in the data set on SREBP pathway (Homo sapiens, Huh-7, 16 h) was 0.042 µM. In data set [1] (setting [3]), this compound returned a solubility at 1 h of 146 µM (≈ 83.4 µg/mL).

For `COc1cc(OC)c([C@@H](O)CCC[C@@H](C)[C@H]2CC[C@H]3[C@H]4[C@H](CC[C@]23C)[C@@]2(C)CC[C@H](O)[C@H](O)[C@@H]2CC4(F)F)c(F)n1` (single isomer, unassigned) [Compound 236], the half-maximal inhibitory concentration (IC50) in the data set with SREBP pathway (Homo sapiens, Huh-7, 16 h) worked out at 0.079 µM. In data set [1] (setting [3]), the concentration in solution (solubility at 1 h) was 305 µM (≈ 178 µg/mL).

As for `C[C@H](CCCC(O)c1nccc2c1OC(F)(F)O2)[C@H]1CC[C@H]2[C@H]3[C@H](CC[C@]12C)[C@@]1(C)CC[C@H](O)[C@H](O)[C@@H]1CC3(F)F` (stereo partly drawn) [Compound 296, (1R,3aS,3bS,5aR,6R,7 S,9aR,9bS,11aR)-1-[(2R)-6-(2,2-Difluoro[1,3]dioxolo[4,5-c]pyridin-4-yl)-6-hydroxyhexan-2-yl]-4,4-difluoro-9a,11a-dimethylhexadecahydro-1H-cyclopenta[1,2-a]phenanthrene-6,7-diol], the IC50 in the data set on SREBP pathway (Homo sapiens, Huh-7, 16 h) came to 0.226 µM. Further, in data set [1] (setting [3]), the solubility at 1 h is 69.3 µM (≈ 40.6 µg/mL).

`C[C@H](CCCC(O)c1cccc2cn[nH]c12)[C@H]1CC[C@H]2[C@H]3[C@H](CC[C@]12C)[C@@]1(C)CC[C@H](O)[C@H](O)[C@@H]1CC3(F)F` (stereo partly drawn) [Compound 224, (1R,3aS,3bS,5aR,6R,7 S,9aR,9bS,11aR)-4,4-Difluoro-1-[(2R)-6-hydroxy-6-(1H-indazol-7-yl)hexan-2-yl]-9a,11a-dimethylhexadecahydro-1H-cyclopenta[1,2-a]phenanthrene-6,7-diol]: in the data set on SREBP pathway (Homo sapiens, Huh-7, 16 h), the IC50 was 0.055 µM. The compound also had a solubility at 1 h in data set [1] (setting [3]) of 48 µM (≈ 26.1 µg/mL).
